The values that follow are results of earlier work, collected in patent US20220265591A1, “USE OF AN OSMOLYTE IN MANUFACTURE OF A MEDICAMENT FOR TREATMENT OF OCULAR DISORDERS” (SINGAPORE HEALTH SERVICES PTELTD, priority 2019, published 2022).

For the data set, the system named is TGFBIp derived peptides. The following applies: 0.001-0.02% (0.03-0.6 mM), close to critical micellar concentration; cited from earlier work.

In the case of benzalkonium chloride, the “effect on amyloid fibril formation” value is “accelerated the amyloid fibril formation”.
